Measured values reported in patent EP2725026A1, “Heterocyclic neoflavonoids with taste masking properties” (Symrise AG, priority 2012, dated 2014).

Columns and labels:
Assay type in all cases: in vivo
[1] = Bitterness reduction of a bitter substance solution (expert sensory panel), naringin; settings: 100 ppm Naringin; for Bitter-Eindruck (1-10) mit Testsubstanz: scale 1 [nicht bitter] to 10 [extrem bitter]
From the text: (§1) Um die Reduzierung (d.h. die Maskierung oder Verminderung) des Bitter-Eindrucks in einer Probe zu quantifizieren, wurde die Bitterkeit einer Lösung enthaltend 500 ppm Coffein oder 300 ppm Theobromin oder 100 ppm Naringin von einer Expertengruppe jeweils mit einer Probe verglichen, die 500 ppm Coffein oder 300 ppm Theobromin oder 100 ppm Naringin und zusätzlich die jeweils angegebene Menge einer (hinsichtlich der Fähigkeit zur Bitter-Reduzierung) zu beurteilenden Substanz enthielt (Einstufung: 1 [nicht bitter] bis 10 [extrem bitter]). Für die Auswertung, d.h. die Berechnung der Reduktion (in %) des Bittereindrucks wurden jeweils die Durchschnittswerte der Einschätzungen der Expertengruppe verwendet. Die Ergebnisse sind in Tabelle 1 zusammengefasst: Tabelle 1 Bitter-reduzierung einer Bitterstofflösung

[2] = Bitterness reduction of a bitter substance solution (expert sensory panel), caffeine; settings: 500 ppm Coffein; for Bitter-Eindruck (1-10) mit Testsubstanz: scale 1 [nicht bitter] to 10 [extrem bitter]
From the text: as §1

[3] = Bitterness reduction of a bitter substance solution (expert sensory panel), theobromine; settings: 25 ppm test substance, 300 ppm Theobromin; for Bitter-Eindruck (1-10) mit Testsubstanz: scale 1 [nicht bitter] to 10 [extrem bitter]
From the text: as §1

| SMILES | % Reduktion des Bitter-Eindrucks (Signifikanz) ([1]; 25 ppm test substance, p < 0,0001) | Bitter-Eindruck (1-10) mit Testsubstanz ([1]; 25 ppm test substance, without test substance 6,6 ± 2,0) | % Reduktion des Bitter-Eindrucks (Signifikanz) ([2]; 10 ppm test substance, p < 0,0007) | Bitter-Eindruck (1-10) mit Testsubstanz ([2]; 10 ppm test substance, without test substance 3,8 ± 1,3) | Bitter-Eindruck (1-10) mit Testsubstanz ([3]; without test substance 3,6 ± 2,0) | % Reduktion des Bitter-Eindrucks (Signifikanz) ([3]; without test substance 3,6 ± 2,0, p < 0,25) | % Reduktion des Bitter-Eindrucks (Signifikanz) ([1]; 50 ppm test substance, p < 0,02) | Bitter-Eindruck (1-10) mit Testsubstanz ([1]; 50 ppm test substance, without test substance 5,0 ± 2,0) | % Reduktion des Bitter-Eindrucks (Signifikanz) ([2]; 50 ppm test substance, p < 0,35) | Bitter-Eindruck (1-10) mit Testsubstanz ([2]; 50 ppm test substance, without test substance 3,5 ± 1,4) | Bitter-Eindruck (1-10) mit Testsubstanz ([3]; without test substance 4,2 ± 2,2) |
| --- | --- | --- | --- | --- | --- | --- | --- | --- | --- | --- | --- |
| O=C1C[C@@H](c2ccncc2)c2c(O)cc(O)cc2O1 (racemic) [(1) + (2), (4S)-5,7-dihydroxy-4-(4-pyridyl)chroman-2-on (1) und (4R)-5,7-dihydroxy-4-(4-pyridyl)chroman-2-on (2)] | 52,1 % (p < 0,0001) | 3,2 + 1,5 | 37,0 % (p < 0,0007) | 2,4 + 1,0 | 2,9 ± 1,4 | 19,4 % (p < 0,25) | – | – | – | – | – |
| O=C1C[C@@H](c2cccnc2)c2c(O)cc(O)cc2O1 (racemic) [(3) + (4), (4S)-5,7-dihydroxy-4-(3-pyridyl)chroman-2-on (3) und (4R)-5,7-dihydroxy-4-(3-pyridyl)chroman-2-on (4)] | – | – | – | – | – | – | 34,1 % (p < 0,02) | 3,3 ± 1,8 | 13,7% (p < 0,35) | 3,1 ± 1,7 | 3,4 ± 1,8 |
